Reference: patent US11014914B2, “Opioid receptor (MOR) agonist salt, fumarate salt crystal form I thereof and preparation method thereof” (Jiangsu Hengrui Medicine Co., Ltd., priority 2017, dated 2021)

Experiments:
[1] = Stability investigation of crystal form I (XRPD, long-term placement); type: physicochemical; details: long-term 25° C., 60% RH, dark, sealed, sampling time 5 days
Method: The crystal form I sample prepared by embodiment 2 was placed in the dark, sealed and placed flat, and the stability of the sample was investigated long-term (25° C., 60% RH), sampling time was 5 days, and XRPD was used to detect whether the crystal form changed.

[2] = Solubility comparison of the fumarate salt and free base in water; type: physicochemical; details: thermodynamic from solid; pure water, stirred overnight, filtered, HPLC
Excerpt: Test sample: compound represented by formula (II) (free base) prepared by comparative experiment 2 and product prepared by embodiment 1 (compound represented by formula (I));
The tested sample was weighted and added into pure water, then stirred by a magnetic stirrer overnight, and then filtered and diluted to a certain volume for sample injection;
HPLC chromatographic conditions: acetonitrile-0.1% aqueous trifluoroacetic acid (50:50) used as mobile phase, detection wavelength 264 nm, injection volume 10 μL, flow rate 1.0 mL/min.

Row | Compound | XRPD peak pattern (crystal form change) [1] | solubility [2] [mg/mL]
1 | CCO[C@H]1CC[C@H](NCC[C@@]2(c3ccccn3)CCOC3(CCCC3)C2)c2ccccc21.O=C(O)/C=C/C(=O)O [Compound represented by formula (I), (1S,4S)-4-ethoxy-N-(2-((R)-9-(pyridin-2-yl)-6-oxaspiro[4.5]deca-9-yl)ethyl)-1,2,3,4-tetrahydronaphthalen-1-amine fumarate salt] | remained unchanged | 31.3
2 | CCO[C@H]1CC[C@H](NCC[C@@]2(c3ccccn3)CCOC3(CCCC3)C2)c2ccccc21 [Free base, (1S,4S)-4-ethoxy-N-(2-((R)-9-(pyridin-2-yl)-6-oxaspiro[4.5]deca-9-yl)ethyl)-1,2,3,4-tetrahydronaphthalen-1-amine] |  | 0.0022
